Test results as given in PubChem BioAssay (NCI).
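Grown in 96-well plates, cells were treated for 48 hours with each compound at five concentrations. Insufficient inhibition: endpoint recorded as highest concentration tested. GI50: concentration for 50% inhibition of growth. Definition used: TGI = concentration required for complete inhibition of growth.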

What was measured:
Assay in all cases: NCI tumour cell line growth inhibition, 48 h
HOP-92 NSCLC = tested on: HOP-92 NSCLC
SK-MEL-5 melanoma = tested on: SK-MEL-5 melanoma
OVCAR-3 ovarian = tested on: OVCAR-3 ovarian
LOX IMVI melanoma = tested on: LOX IMVI melanoma
HCT-15 colon = tested on: HCT-15 colon
KM12 colon = tested on: KM12 colon
HT29 colon = tested on: HT29 colon
RPMI-8226 leukemia = tested on: RPMI-8226 leukemia
DMS 273 small cell lung = tested on: DMS 273 small cell lung
P388/ADR leukemia = tested on: P388/ADR leukemia
XF 498 CNS = tested on: XF 498 CNS
SNB-78 CNS = tested on: SNB-78 CNS
HOP-18 NSCLC = tested on: HOP-18 NSCLC
DMS 114 small cell lung = tested on: DMS 114 small cell lung
DLD-1 colon = tested on: DLD-1 colon
P388 leukemia = tested on: P388 leukemia

Clc1nc(Cl)c(Cl)c(Cl)n1 gave a TGI (HOP-92 NSCLC) of 56.4 µM, a TGI (SK-MEL-5 melanoma) of 32.2 µM and a TGI (OVCAR-3 ovarian) of 31.7 µM. For the same compound, the TGI (LOX IMVI melanoma) was 27.3 µM, the TGI (HCT-15 colon) was 38.1 µM and the TGI (KM12 colon) was 28.9 µM. The TGI (HT29 colon) was 52.6 µM and the TGI (RPMI-8226 leukemia) was greater than 100 µM.

Compound Cc1cc(O)c2c(c1O)C(=O)C13C(=C2O)C(=O)C2C(O)C1C1C(O)C3C(=O)C3=C(O)c4c(O)cc(C)c(O)c4C(=O)C321 (centres undefined) has a TGI (DMS 273 small cell lung) of 0.621 µM, a TGI (SK-MEL-5 melanoma) of 0.364 µM and a TGI (P388/ADR leukemia) of 0.144 µM. The TGI (LOX IMVI melanoma) was 1.46 µM, the TGI (HCT-15 colon) was 0.182 µM and the TGI (KM12 colon) was 10.7 µM. It also gave a TGI (HT29 colon) of 0.406 µM, a TGI (XF 498 CNS) of 0.504 µM and a TGI (SNB-78 CNS) of 0.722 µM. It also gave a TGI (RPMI-8226 leukemia) of less than 0.0312 µM and a TGI (HOP-18 NSCLC) of 1.17 µM.

Work on CCOC(=O)c1sc2nc(SC)nc3c2c1NC(=O)CN3c1cccc(F)c1 yielded a TGI (HOP-92 NSCLC) of 55.6 µM, a TGI (SK-MEL-5 melanoma) greater than 100 µM and a TGI (OVCAR-3 ovarian) of 43.9 µM. It also gave a TGI (LOX IMVI melanoma) of 38.8 µM, a TGI (KM12 colon) greater than 100 µM and a TGI (HT29 colon) greater than 100 µM. For the same compound, the TGI (RPMI-8226 leukemia) was 46.8 µM.

CCN(CC)CCCOC(=O)/C=C/c1c(C)[nH]c(=O)[nH]c1=O showed a TGI (HOP-92 NSCLC) greater than 625 µM, a TGI (DMS 114 small cell lung) greater than 625 µM and a TGI (DMS 273 small cell lung) greater than 625 µM. The TGI (SK-MEL-5 melanoma) was greater than 625 µM, the TGI (OVCAR-3 ovarian) was greater than 625 µM and the TGI (DLD-1 colon) was greater than 625 µM. It also gave a TGI (P388/ADR leukemia) greater than 394 µM, a TGI (P388 leukemia) greater than 625 µM and a TGI (LOX IMVI melanoma) greater than 625 µM. It also gave a TGI (HCT-15 colon) greater than 625 µM, a TGI (KM12 colon) greater than 625 µM and a TGI (HT29 colon) greater than 394 µM. It also gave a TGI (XF 498 CNS) greater than 625 µM, a TGI (SNB-78 CNS) greater than 625 µM and a TGI (RPMI-8226 leukemia) greater than 625 µM. It also gave a TGI (HOP-18 NSCLC) greater than 625 µM.

With O=C(NCCCCCCNC(=O)n1cc(F)c(=O)[nH]c1=O)NCCCOCCOCCCNC(=O)C(O)C(O)C(O)C(O)CO (centres undefined) the TGI (HOP-92 NSCLC) was greater than 2.5 µM, the TGI (DMS 114 small cell lung) was greater than 2.5 µM and the TGI (DMS 273 small cell lung) was greater than 2.5 µM. For the same compound, the TGI (SK-MEL-5 melanoma) was greater than 2.5 µM, the TGI (OVCAR-3 ovarian) was greater than 2.5 µM and the TGI (DLD-1 colon) was greater than 2.5 µM. For the same compound, the TGI (P388/ADR leukemia) was greater than 2.5 µM, the TGI (P388 leukemia) was greater than 2.5 µM and the TGI (LOX IMVI melanoma) was greater than 2.5 µM. It also gave a TGI (HCT-15 colon) greater than 2.5 µM, a TGI (KM12 colon) greater than 2.5 µM and a TGI (HT29 colon) greater than 2.5 µM. The TGI (XF 498 CNS) was greater than 2.5 µM, the TGI (SNB-78 CNS) was greater than 2.5 µM and the TGI (RPMI-8226 leukemia) was greater than 2.5 µM. The TGI (HOP-18 NSCLC) was greater than 2.5 µM.

In the case of C=C1C[C@@H](O)C[C@@]2(C)C[C@@H]3OC(=O)C(=C)[C@@H]3C[C@H]12, the TGI (HOP-92 NSCLC) is reported as 28.1 µM, the TGI (DMS 114 small cell lung) is reported as 23.5 µM and the TGI (DMS 273 small cell lung) is reported as 20.5 µM. The TGI (SK-MEL-5 melanoma) was 11.7 µM, the TGI (OVCAR-3 ovarian) was 35.2 µM and the TGI (DLD-1 colon) was greater than 36.6 µM. For the same compound, the TGI (P388/ADR leukemia) was 31.8 µM, the TGI (P388 leukemia) was 8.87 µM and the TGI (LOX IMVI melanoma) was 21.5 µM. The TGI (HCT-15 colon) was 18.2 µM, the TGI (KM12 colon) was 28.6 µM and the TGI (HT29 colon) was 10.8 µM. The TGI (XF 498 CNS) was 4.71 µM, the TGI (SNB-78 CNS) was 37.3 µM and the TGI (RPMI-8226 leukemia) was 34.5 µM. The TGI (HOP-18 NSCLC) was 15.9 µM.

In the case of Cc1c2c(cc3c1[nH]c1ccccc13)C=NCC2, the TGI (HOP-92 NSCLC) is reported as 16.4 µM, the TGI (DMS 114 small cell lung) is reported as 12.9 µM and the TGI (DMS 273 small cell lung) is reported as 45.8 µM. For the same compound, the TGI (SK-MEL-5 melanoma) was 12.7 µM, the TGI (OVCAR-3 ovarian) was 11.8 µM and the TGI (DLD-1 colon) was 33.1 µM. It also gave a TGI (P388/ADR leukemia) of 53.1 µM, a TGI (P388 leukemia) of 17.6 µM and a TGI (LOX IMVI melanoma) of 36.6 µM. It also gave a TGI (HCT-15 colon) of 61.8 µM, a TGI (KM12 colon) of 27.8 µM and a TGI (HT29 colon) of 31.7 µM. For the same compound, the TGI (XF 498 CNS) was 12.6 µM, the TGI (SNB-78 CNS) was 63.8 µM and the TGI (RPMI-8226 leukemia) was 51.6 µM.

Compound CC(=O)NCCC1CN(C(=O)/C=C\C#C[Si](C)(C)C)c2ccccc21 (centres undefined) has a TGI (HOP-92 NSCLC) greater than 100 µM, a TGI (SK-MEL-5 melanoma) greater than 100 µM and a TGI (OVCAR-3 ovarian) of 84.1 µM. The TGI (LOX IMVI melanoma) was 44.3 µM, the TGI (HCT-15 colon) was 48.9 µM and the TGI (KM12 colon) was greater than 100 µM. The TGI (HT29 colon) was 58.9 µM and the TGI (RPMI-8226 leukemia) was greater than 100 µM.

In the case of O=C(Nc1c[nH]c(=O)[nH]c1=O)C(Cl)Cl, the TGI (HOP-92 NSCLC) is reported as greater than 100 µM, the TGI (SK-MEL-5 melanoma) is reported as greater than 100 µM and the TGI (OVCAR-3 ovarian) is reported as greater than 100 µM. The TGI (LOX IMVI melanoma) was greater than 100 µM, the TGI (HCT-15 colon) was greater than 100 µM and the TGI (KM12 colon) was greater than 100 µM. The TGI (HT29 colon) was greater than 100 µM and the TGI (RPMI-8226 leukemia) was greater than 100 µM.

C/C(=N\NS(=O)(=O)c1ccccc1)c1ccccc1 showed a TGI (HOP-92 NSCLC) greater than 100 µM, a TGI (DMS 114 small cell lung) greater than 100 µM and a TGI (DMS 273 small cell lung) greater than 100 µM. It also gave a TGI (SK-MEL-5 melanoma) greater than 100 µM, a TGI (OVCAR-3 ovarian) greater than 100 µM and a TGI (DLD-1 colon) greater than 100 µM. For the same compound, the TGI (P388/ADR leukemia) was greater than 100 µM, the TGI (P388 leukemia) was greater than 100 µM and the TGI (LOX IMVI melanoma) was greater than 100 µM. It also gave a TGI (HCT-15 colon) greater than 100 µM, a TGI (KM12 colon) greater than 100 µM and a TGI (HT29 colon) greater than 100 µM. The TGI (XF 498 CNS) was greater than 100 µM, the TGI (SNB-78 CNS) was greater than 100 µM and the TGI (RPMI-8226 leukemia) was greater than 100 µM. For the same compound, the TGI (HOP-18 NSCLC) was greater than 100 µM.

Compound O=C1CC(=O)c2c(O)cc(O)c(c2O)-c2c(ccc(O)c2O)C2=CC(=O)c3c(O)cc(O)c(c3O2)-c2c1ccc(O)c2O (tested in a mixture with another compound) has a TGI (HOP-92 NSCLC) greater than 50 µM, a TGI (SK-MEL-5 melanoma) greater than 50 µM and a TGI (OVCAR-3 ovarian) greater than 50 µM. The TGI (LOX IMVI melanoma) was greater than 50 µM, the TGI (HCT-15 colon) was greater than 50 µM and the TGI (HT29 colon) was greater than 50 µM.

For O=C(CC/C=C(/CS(=O)(=O)c1ccccc1)S(=O)(=O)c1ccccc1)c1ccccc1, the TGI (HOP-92 NSCLC) was greater than 100 µM, the TGI (DMS 114 small cell lung) was 83.4 µM and the TGI (DMS 273 small cell lung) was greater than 100 µM. It also gave a TGI (SK-MEL-5 melanoma) greater than 100 µM, a TGI (OVCAR-3 ovarian) greater than 100 µM and a TGI (DLD-1 colon) greater than 100 µM. The TGI (LOX IMVI melanoma) was greater than 100 µM, the TGI (HCT-15 colon) was greater than 100 µM and the TGI (KM12 colon) was greater than 100 µM. For the same compound, the TGI (HT29 colon) was greater than 100 µM, the TGI (XF 498 CNS) was greater than 100 µM and the TGI (RPMI-8226 leukemia) was greater than 100 µM. The TGI (HOP-18 NSCLC) was greater than 100 µM.

Work on CC(=O)OCC1OC(n2cc(F)c(=O)[nH]c2=O)C(N)C(OC(C)=O)C1OC(C)=O (centres undefined) yielded a TGI (HOP-92 NSCLC) greater than 100 µM, a TGI (DMS 114 small cell lung) greater than 100 µM and a TGI (DMS 273 small cell lung) greater than 100 µM. It also gave a TGI (SK-MEL-5 melanoma) greater than 100 µM, a TGI (OVCAR-3 ovarian) greater than 100 µM and a TGI (DLD-1 colon) greater than 100 µM. For the same compound, the TGI (P388/ADR leukemia) was greater than 100 µM, the TGI (P388 leukemia) was greater than 100 µM and the TGI (LOX IMVI melanoma) was greater than 100 µM. The TGI (HCT-15 colon) was greater than 100 µM, the TGI (KM12 colon) was greater than 100 µM and the TGI (HT29 colon) was greater than 100 µM. The TGI (XF 498 CNS) was greater than 100 µM, the TGI (SNB-78 CNS) was greater than 100 µM and the TGI (RPMI-8226 leukemia) was greater than 100 µM. The TGI (HOP-18 NSCLC) was greater than 100 µM.

With Nc1nc2c(c(=O)[nH]1)N(C=O)C(CNc1ccc(C(=O)N[C@@H](CCC(=O)O)C(=O)O)cc1)CN2 (some centres undefined) the TGI (HOP-92 NSCLC) was greater than 125 µM, the TGI (DMS 114 small cell lung) was greater than 125 µM and the TGI (DMS 273 small cell lung) was greater than 125 µM. The TGI (SK-MEL-5 melanoma) was greater than 125 µM, the TGI (OVCAR-3 ovarian) was greater than 125 µM and the TGI (DLD-1 colon) was greater than 125 µM. It also gave a TGI (P388/ADR leukemia) greater than 125 µM, a TGI (P388 leukemia) greater than 125 µM and a TGI (LOX IMVI melanoma) greater than 125 µM. The TGI (HCT-15 colon) was greater than 125 µM, the TGI (KM12 colon) was greater than 125 µM and the TGI (HT29 colon) was greater than 125 µM. It also gave a TGI (SNB-78 CNS) greater than 125 µM, a TGI (RPMI-8226 leukemia) greater than 125 µM and a TGI (HOP-18 NSCLC) greater than 125 µM.

Compound CC(=O)[C@@H]1CCC=C2CC[C@]3(C)[C@@H](CC[C@@H]4[C@@]5(C)CCCNC(C)(C)[C@@H]5CC[C@]43C)[C@H]21 has a GI50 (HOP-92 NSCLC) of 1.37 µM, a TGI (HOP-92 NSCLC) of 2.77 µM and a GI50 (HCT-15 colon) of 1.44 µM. It also gave a TGI (HCT-15 colon) of 2.84 µM, a GI50 (KM12 colon) of 1.93 µM and a TGI (KM12 colon) of 3.6 µM. For the same compound, the GI50 (HT29 colon) was 1.2 µM and the TGI (HT29 colon) was 2.58 µM.
